Data reported in patent US7842721B2, “Composition for treating cancer cells and synthetic method for the same” (Kaohsiung Medical University, priority 2007, dated 2010).
In brackets after ≈: the same amount, converted by molar mass.

Legend:
human cancer cell lines = test: in vitro cytotoxic activities against several human cancer lines (panel summary); format: cell-based; details: for cytotoxic activity against cancer cell lines (in words): especially Hep3B and MDA-MB-231
Experimental: (§1) Human liver (HepG2 and Hep3B), breast (MCF-7 and MDA-MB-231), and lung (A549) cancer cell lines were propagated in RPMI-1640 medium supplement with 10% (v/v) FBS, 100 U/mL penicillin and 100 µg/mL streptomycin at 37° C. in a humidified atmosphere of 5% CO2 and 95% air. The culturing medium is changed every three days. Upon confluency, cells were subcultured to confluency, and used for experiments. The experimental period is determined according to the aim of experiment.
(§2) Cytotoxicity is measured by the MTT calorimetric method. Cells were seeded at densities of 5,000-10,000 cells/well in 96-well tissue culture plates. On day two, cells are treated with test compounds for another 72 hrs. After drug treatment, attached cells were incubated with MTT (0.5 mg/mL) for 1 hr and subsequently solubilized in DMSO. The absorbency at 550 nm is then measured using a microplate reader. The IC50 is the concentration of agent that reduces the cell viability by 50% under the experimental conditions, and the cytotoxic compound, Doxorubicin, is used as a positive control.
It is known that both the protoapigenone compound and its derivatives synthesized by a chemical method have cytotoxic effect against cancer cells, similar to nature protoapigenone compound extracted from a plant.

HepG2 = test: MTT cytotoxicity assay, HepG2; format: cell-based, Human; details: for IC50 HepG2: human liver cancer cells, MTT, 72 hrs treatment
Experimental: as §1, §2

Hep3B = test: MTT cytotoxicity assay, Hep3B; format: cell-based; details: human liver cancer cells, 72 hrs treatment
Experimental: as §1, §2

MDA-MB-231 = test: MTT cytotoxicity assay, MDA-MB-231; format: cell-based; details: human breast cancer cells, 72 hrs treatment
Experimental: as §1, §2

MCF-7 = test: MTT cytotoxicity assay, MCF-7; format: cell-based; details: human breast cancer cells, 72 hrs treatment
Experimental: as §1, §2

A549 = test: MTT cytotoxicity assay, A549; format: cell-based; details: human lung cancer cells, 72 hrs treatment
Experimental: as §1, §2

[1] = tested on: human cancer cell lines (MCF-7, MDA-MB-231, Hep G2, Hep 3B, A549); details: compound derived from Thelypteris torresiana; Planta Medica 71:867-870, 2005; cited from earlier work

O=C1C=CC(O)(c2cc(=O)c3ccccc3o2)C=C1 [Compound 8a, 2-(1-hydroxy-4-oxocyclohexa-2,5-dienyl)-4H-chromen-4-one]
cytotoxic activity against cancer cell lines (in words) (human cancer cell lines): significant cytotoxic activity

COC1(c2cc(=O)c3ccccc3o2)C=CC(=O)C=C1 [Compound 8b, 1′-methoxyprotoflavonoen]
IC50 HepG2 (HepG2): 10.95 µg/mL (≈ 40.8 µM) | IC50 Hep3B (Hep3B): 1.45 µg/mL (≈ 5.41 µM) | IC50 MDA-MB-231 (MDA-MB-231): 1.47 µg/mL (≈ 5.48 µM) | IC50 MCF-7 (MCF-7): 2.14 µg/mL (≈ 7.98 µM) | IC50 A549 (A549): >20 µg/mL

O=C1C=CC(O)(c2cc(=O)c3c(O)cccc3o2)C=C1 [Compound 10a, 2-(1-hydroxy-4-oxocyclohexa-2,5-dienyl)-5-hydroxy-4H-chromen-4-one]
cytotoxic activity against cancer cell lines (in words) (human cancer cell lines): significant cytotoxic activity

COC1(c2cc(=O)c3c(C)cccc3o2)C=CC(=O)C=C1 [Compound 10b, 1′-methoxy-5-methylprotoflavonone]
IC50 HepG2 (HepG2): 7.64 µg/mL (≈ 27.1 µM) | IC50 Hep3B (Hep3B): 0.66 µg/mL (≈ 2.34 µM) | IC50 MDA-MB-231 (MDA-MB-231): 0.54 µg/mL (≈ 1.91 µM) | IC50 MCF-7 (MCF-7): 1.55 µg/mL (≈ 5.49 µM) | IC50 A549 (A549): 16.36 µg/mL (≈ 58 µM)

O=C1C=CC(O)(c2cc(=O)c3c(ccc4ccccc43)o2)C=C1 [Compound 15a, 3-(1-hydroxy-4-oxocyclohexa-2,5-dienyl)-1H-benzo[f]chromen-1-one]
cytotoxic activity against cancer cell lines (in words) (human cancer cell lines): significant cytotoxic activity

COc1cc(O)c2c(=O)cc(C3(O)C=CC(=O)C=C3)oc2c1 [Compound 18a, 5-hydroxy-2-(1-hydroxy-4-oxocyclohexa-2,5-dienyl)-7-methoxy-4H-chromen-4-one]
activity against the HepG2 human liver cancer cell line (in words) (HepG2; compared with most analogs): significantly enhanced activity | cytotoxic activity against cancer cell lines (in words) (human cancer cell lines): significant cytotoxic activity | potency against all five cancer cell lines, among the derivatives (in words) (human cancer cell lines; five cancer cell lines): highest potency

O=C1C=CC(O)(c2cc(=O)c3c(O)cc(O)cc3o2)C=C1 [protoapigenone]
cytotoxic activities to human cancer cell lines (in words) [1]: strong cytotoxic activities
